The record followed here is US20230322744A1, “COMPOUNDS AS GLP-1R AGONISTS” (Terns Pharmaceuticals, Inc., priority 2020, published 2023).

The target of this experiment is wild-type human GLP-1R (Homo sapiens, UniProt P43220). Description: GLP-1R Cell Assay 1 (cAMP Hunter CHO-K1 GLP1R Gs cell line, HitHunter cAMP assay). The experiment is classed as cell-based. The note with it: agonist activity, cellular cAMP, CHO-K1 overexpressing human GLP-1R; normalized to Exendin-4; Table 3; no stereo designation = tested as mixture of stereoisomers. On the procedure:
GLP-1R mediated agonist activity was determined using the cAMP Hunter CHO-K1 GLP1R Gs cell line (DiscoverX, cat #95-0062C2), a stable CHO-K1 derived cell lines overexpressing naturally Gs coupled wild-type human GLP-1R (accession number: NM_002062.3). GLP-1R agonism in this cell line was detected by measuring cellular cAMP levels using the HitHunter cAMP assay kit (cat #90-0075SM2), a homogenous, gain-of-signal competitive immune assay based on Enzyme Fragment Complementation (EFC) technology. In this system cellular cAMP competes with exogenous labeled cAMP (ED-cAMP) for binding to an anti-cAMP antibody. […] The luminescent signal is directly proportional to the amount of cellular cAMP.
For compound testing, cells were seeded in a total volume of 20 μL in white walled, 384-well microplates and incubated at 37° C. prior to compound testing. Prior to compound addition, cell culture media was removed by aspiration and replaced with 15 μL reagent buffer (2:1 HBSS/10 mM HEPES: cAMP XS+Ab reagent). […] Microplates were read on a PerkinElmer Envision instrument. Compound activity was analyzed using CBIS data analysis suite (ChemInnovation). Percent activity was calculated based on duplicate assay runs and normalized to the positive control Exendin-4, a GLP-1R peptide agonist, using the following formula: […]
(cAMP levels reflect the balance of adenylyl cyclase and phosphodiesterase activity.)

Chain of wild-type human GLP-1R (P43220 24-463): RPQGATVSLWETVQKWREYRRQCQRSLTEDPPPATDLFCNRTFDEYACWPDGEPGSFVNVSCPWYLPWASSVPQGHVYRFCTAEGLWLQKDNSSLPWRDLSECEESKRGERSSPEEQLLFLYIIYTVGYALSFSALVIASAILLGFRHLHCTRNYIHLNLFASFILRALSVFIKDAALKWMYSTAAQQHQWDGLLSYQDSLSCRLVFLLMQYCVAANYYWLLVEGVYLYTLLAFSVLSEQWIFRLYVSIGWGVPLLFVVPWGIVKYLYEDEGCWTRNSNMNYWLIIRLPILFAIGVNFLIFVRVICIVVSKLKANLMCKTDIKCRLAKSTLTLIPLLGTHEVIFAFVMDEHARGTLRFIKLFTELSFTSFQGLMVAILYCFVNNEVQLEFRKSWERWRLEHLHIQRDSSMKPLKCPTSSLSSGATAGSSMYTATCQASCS

Broadly, the EC50 is the concentration needed to bring the measured effect to its halfway point. For `CCn1cncc1Cn1c(CN2CC[C@]3(c4cccnc4OCc4ccc(C#N)cc4F)C[C@@H]3C2)nc2ccc(C(=O)O)cc21` (single isomer, unassigned) [Compound 166, 2-((6-(2-((4-cyano-2-fluorobenzyl)oxy)pyridin-3-yl)-3-azabicyclo[4.1.0]heptan-3-yl)methyl)-1-((1-ethyl-1H-imidazol-5-yl)methyl)-1H-benzo[d]imidazole-6-carboxylic acid], the EC50 turned out to be 0.0594 µM.
